Experimental findings from patent US4029688A, “Carbamic pesticidal compositions” (priority 1974, dated 1977) are described below.

In brackets after ≈: the same amount, converted by molar mass.

The subject of data set [1] is house flies (Musca domestica, L.). Briefly: Fly Bait Test. Format: in vivo. Also on record: key to Fly: C: no control; B: partial control; A: excellent control. The note with it: for Fly: bait, 500 parts per million, twenty-four hours; for LC50: Musca domestica, Table II, read-out: Housefly LD50. The method, then:
(§1) Suspensions of the test compounds were prepared by dissolving one gram of compound in 50 milliliters of acetone in which had been dissolved 0.1 gram (10 percent of the weight of compound) of an alkylphenoxy polyethoxyethanol surfactant, as an emulsifying or dispersing agent. The resulting solution was mixed into 150 milliliters of water to give roughly 200 milliliters of a suspension containing the compound in finely divided form. The thus-prepared stock suspension contained 0.5 percent by weight of compound. The test concentrations in parts per million by weight employed in the tests described hereinbelow were obtained by appropriate dilutions of the stock suspension with water. The test procedures were as follows:
Four to six day old adult house flies (Musca domestica, L.), reared according to the specifications of the Chemical Specialties Manufacturing Association (Blue Book, McNair-Dorland Co., N. Y. 1954; pages 243-244, 261) under controlled conditions of 80°±5° F. and 50±5 percent relative humidity, were the test insects. The flies were immobilized by anesthetizing with carbon dioxide and twenty-five immobilized individuals, males and females, were transferred to a cage consisting of a standard food strainer about five inches in diameter which was inverted over a wrapping-paper-covered surface. The test compounds were formulated by diluting the stock suspension with a 10 percent (by weight) sugar solution to give a suspension containing 500 parts of test compound per million parts of final formulation, by weight. Ten milliliters of the test formulation were added to a souffle cup containing a one-inch square of an absorbent cotton pad. This bait cup was introduced and centered on the blotting paper under the food strainer prior to admitting the anesthetized flies. The caged flies were allowed to feed on the bait for twenty-four hours, at a temperature of 80°±5° F. and the relative humidity of 50±5 percent.
(§2) In the tests described above, the pesticidal activity of the compounds against aphid, mite, Southern Armyworm, Bean Beetle, house fly and nematode was rated as follows:
(§3) Comparison tests were conducted to assess the biological and chemical properties of certain representative species of the claimed invention in relation to their corresponding N-methyl carbamate compositions. The test procedures described above were employed in these experiments in order to determine the LD50 (number of parts per million of active ingredients required to achieve fifty percent mortality of the insects tested) for each of the compositions tested. In the case of the aphid and mite tests a side by side comparison was made of the N-methyl carbamate composition versus the corresponding perhalomethylsulfenyl derivative.

Data set [2] relates to southern armyworm (Prodenia eridania, (Cram.)). Nature of the data set: Southern Armyworm Leaf Spray Test. The note with it: for Armyworm: leaf spray, 500 parts per million, three days; for LC50: Spodoptera eridania, Table II, read-out: Armyworm LD50. Also on record: key to Armyworm: C: no control; B: partial control; A: excellent control. Format: in vivo. The method, then: as §1
Larvae of the southern armyworm (Prodenia eridania, (Cram.)), reared on Tendergreen bean plants at a temperature of 80°±5° F. and a relative humidity of 50±5 percent, constituted the test insects.
The test compounds were formulated by diluting the stock suspension with water to give a suspension containing 500 parts of test compound per million parts of final formulation. Potted Tendergreen bean plants of standard height and age were placed on a revolving turntable and sprayed with 100-110 milliliters of test compound formulation by use of a DeVilbiss spray gun set at 10 psig air pressure. This application, which lasted 25 seconds, was sufficient to wet plants to run-off. As a control, 100-110 milliliters of a water-acetone-emulsifier solution containing no test compound were also sprayed on infested plants. When dry, the paired leaves were separated and each one was placed in a 9 centimeter Petri dish lined with moistened filter paper. Five randomly selected larvae were introduced into each dish and the dishes were closed. The closed dishes were labeled and held at 80-85° F. for three days. Although the larvae could easily consume the whole leaf within twenty-four hours, no more food was added. Larvae which were unable to move the length of the body, even upon stimulation by prodding, were considered dead. Percent mortality was recorded for various concentration levels.
as §2, §3

Data set [3] deals with Mexican bean beetle (Epilachna varivestis, Muls.). Briefly: Mexican Bean Beetle Leaf Spray Test. The note with it: for Beetle: leaf spray, 500 parts per million, three days; for LC50: Epilachna varivestis, Table II, read-out: Beetle LD50. Format: in vivo. Also on record: key to Beetle: C: no control; B: partial control; A: excellent control. The method, then: as §1
Fourth instar larvae of the Mexican bean beetle (Epilachna varivestis, Muls.), reared on Tendergreen bean plants at a temperature of 80°±5° F. and 50±5 percent relative humidity, were the test insects.
The test compounds were formulated by diluting the stock suspension with water to give a suspension containing 500 parts of test compound per million parts of final formulation. Potted Tendergreen bean plants of standard height and age were placed on a revolving turntable and sprayed with 100-110 milliliters of test compound formulation by use of a DeVilbiss spray gun set at 10 psig air pressure. This application, which lasted 25 seconds, was sufficient to wet plants to run-off. As a control, 100-110 milliliters of a water-acetone-emulsifier solution containing no test compound were also sprayed on infested plants. When dry, the paired leaves were separated and each was placed in a 9 centimeter Petri dish lined with moistened filter paper. Five randomly selected larvae were introduced into each dish, and the dishes were closed. The closed dishes were labeled and held at a temperature of 80°±5° F. for three days. Although the larvae could easily consume the leaf within 24 to 48 hours, no more food was added. Larvae which were unable to move the length of the body, even upon stimulation, were considered dead.
as §2, §3

A short description of a further data set: Chemical stability. The format is physicochemical. The note with it: Table II.
Data set [4] can be described thus: Peroral toxicity to mammals (rat). The note with it: in vivo, po. The method, then:
Certain of these compositions were also evaluated to determine their peroral toxicity to mammals. The animal selected for this experiment was the rat. The test results obtained are expressed in terms of the number of milligrams of composition per kilogram of weight of the animal required to achieve a mortality rate of 50 percent (LD50).

In the case of `CSCC(C)=NOC(=O)N(C)SC(Cl)(Cl)Cl`, in data set [1], the Fly result was “A”. For the same compound, the Armyworm result in data set [2] was “C”. Also, in data set [3], the Beetle result was “C”.
Consider `CSCC(=NOC(=O)N(C)SC(Cl)(Cl)Cl)C(C)(C)C`, for which the Fly entry in data set [1] was “B”. Moreover, the Armyworm result in data set [2] is reported as “C”. The Beetle entry in data set [3] was “A”.
Regarding `CC(CSC(C)(C)C)=NOC(=O)N(C)SC(Cl)(Cl)Cl`, in data set [1], the Fly result was “C”. Besides, the Armyworm result in data set [2] is recorded as “C”. Further, the Beetle entry in data set [3] is recorded as “C”.
With `CC(=NOC(=O)N(C)SC(Cl)(Cl)Cl)C(C)(C)N=[N+]=[N-]`, the Fly result in data set [1] was “A”. In addition, in data set [2], the Armyworm result is “C”. The Beetle result in data set [3] is reported as “A”.
As for `CC(=NOC(=O)N(C)SC(Cl)(Cl)Cl)C(C)(C)[N+](=O)[O-]`, the Fly result in data set [1] was “A”. Also, in data set [2], the Armyworm result was “B”. The Beetle result in data set [3] is on record as “A”.
Regarding `CC(C[N+](=O)[O-])=NOC(=O)N(C)SC(Cl)(Cl)Cl`, the Fly result in data set [1] was “A”. Further, in data set [2], the Armyworm result is “C”. For the same compound, the Beetle result in data set [3] is given as “B”.
As to `CC(=NOC(=O)N(C)SC(Cl)(Cl)Cl)C(C)(C)C#N`, the Fly entry in data set [1] was “A”. The Armyworm result in data set [2] is “B”. For the same compound, the Beetle entry in data set [3] is recorded as “A”.
For the compound `COC(C)(C)C(Cl)=NOC(=O)N(C)SC(Cl)(Cl)Cl`, in data set [1], the Fly entry is recorded as “A”. Also, the Armyworm result in data set [2] is recorded as “C”. For the same compound, in data set [3], the Beetle result is listed as “A”.
For `CCOC(=O)CSC(C)(C)C=NOC(=O)N(C)SC(Cl)(Cl)Cl`, in data set [1], the Fly result is “C”. In addition, the Armyworm entry in data set [2] is listed as “C”. Moreover, the Beetle entry in data set [3] is “B”.
`CCOC(=O)C(C)SC(C)(C)C=NOC(=O)N(C)SC(Cl)(Cl)Cl` (stereo not shown): the Fly entry in data set [1] is recorded as “C”. Moreover, the Armyworm result in data set [2] is “C”. The Beetle result in data set [3] is on record as “C”.
With `CSC(=NOC(=O)N(C)SC(Cl)(Cl)Cl)C(C)(SC)SC`, the Fly result in data set [1] was “A”. For the same compound, the Armyworm result in data set [2] is recorded as “C”. Also, in data set [3], the Beetle entry was “A”.
Regarding `CCOC(=O)CSC(C)=NOC(=O)N(C)SC(Cl)(Cl)Cl`, the Fly entry in data set [1] is on record as “C”. Moreover, the Armyworm entry in data set [2] is “C”. Besides, in data set [3], the Beetle result was “C”.
`CCOC(=O)CCSC(C)=NOC(=O)N(C)SC(Cl)(Cl)Cl`: the Fly entry in data set [1] is given as “B”. The Armyworm entry in data set [2] is on record as “B”. Besides, the Beetle result in data set [3] is “B”.
Regarding `CC(=NOC(=O)N(C)SC(Cl)(Cl)Cl)SCCC#N` [1-(2-Cyanoethylthio)acetaldehyde O-(N-methyl-N-trichloromethanesulfenylcarbamoyl)oxime], in data set [1], the LC50 came to 3 µg/mL (≈ 8.55 µM) and the Fly result is given as “A”. Also, in data set [2], the LC50 was found to be 6 µg/mL (≈ 17.1 µM) and the Armyworm result is recorded as “A”. The Stability result in “Chemical stability” was “stable”. The LD50 (commonly the dose expected to kill half of the subjects tested) in data set [4] (peroral, Table I) worked out at 85.7 mg/kg. Further, in data set [3], the LC50 turned out to be 15 µg/mL (≈ 42.8 µM) and the Beetle result is recorded as “A”.
For `CN(SC(Cl)(Cl)Cl)C(=O)ON=CC(C)(C)C#N` [2-Methyl-2-cyanopropionaldehyde O-(N-methyl-N-trichloromethanesulfenylcarbamoyl)oxime], in data set [1], the LC50 turned out to be 7 µg/mL (≈ 22 µM) and the Fly entry is “A”. Further, in data set [2], the LC50 was 50 µg/mL (≈ 157 µM) and the Armyworm entry is “A”. Also, in the data set “Chemical stability”, the Stability result is on record as “stable”. Besides, in data set [4] (Table II), the LD50 amounted to 28.3 mg/kg. Besides, in data set [3], the LC50 was determined as 45 µg/mL (≈ 141 µM) and the Beetle entry is reported as “A”.
In the case of `CN(SC(Cl)(Cl)Cl)C(=O)ON=CC(C)(C)[S+](C)[O-]` (stereo not shown) [2-Methyl-2-methylsulfinylpropionaldehyde O-(N-methyl-N-trichloromethanesulfenylcarbamoyl)oxime], the Fly entry in data set [1] is on record as “A”. For the same compound, the Armyworm result in data set [2] is “A”. Also, the Beetle result in data set [3] is on record as “A”.
With `CN(SC(Cl)(Cl)Cl)C(=O)ON=CC(C)(C)S(C)(=O)=O` [2-Methyl-2-methylsulfonylpropionaldehyde O-(N-methyl-N-trichloromethanesulfenylcarbamoyl)oxime], the Fly entry in data set [1] is listed as “A”. In data set [2], the Armyworm result is given as “C”. Also, the Beetle entry in data set [3] is recorded as “A”.
In the case of `CN(SC(Cl)(Cl)Cl)C(=O)ON=CC(C)(C)[N+](=O)[O-]` [2-Methyl-2-nitropropionaldehyde O-(N-methyl-N-trichloromethanesulfenylcarbamoyl)oxime], the LC50 in data set [1] came out at 5 µg/mL (≈ 14.8 µM); in data set [2] it was 130 µg/mL (≈ 384 µM); in data set [3] it was 17 µg/mL (≈ 50.2 µM). Further, the Fly result in data set [1] is on record as “A”. In addition, in data set [2], the Armyworm entry was “A”. Moreover, the Stability entry in the data set “Chemical stability” was “stable”. Also, the 50% lethal dose (LD50) in data set [4] (Table II) is 14 mg/kg; in data set [4] (peroral, Table I), 13 mg/kg. Further, the Beetle entry in data set [3] is given as “A”.
As for `CN(SC(F)(F)F)C(=O)ON=CC(C)(C)C#N` [drawing 12], the Fly result in data set [1] was “A”. For the same compound, in data set [2], the Armyworm entry is “A”. Moreover, the Beetle result in data set [3] is recorded as “A”.
